Source: US10173999B2, “Cyclic amine derivative and pharmaceutical use thereof” (Toray Industries, Inc., priority 2015, dated 2019)
Entries after “also recorded” stand apart in the source; their conditions may differ. Counter-ions that a name gives are not always drawn.

How the values were obtained:
Cr1: CD (SD) rats = experiment: Evaluation of safety in rat, two-week oral administration test; type: in vivo; details: for findings in examination items: in vivo, po
Protocol: As a test compound, the compound of Example 11 or Comparative Example 2 was used. The compound of Example 11 or Comparative Example 2 was administered orally to Cr1: CD (SD) rats (7 weeks old, female and male; from Charles River Laboratories, Inc.), for 2 weeks. Clinical observation, body weight measurement, food intake measurement, ophthalmologic examination (the compound of Example 11, alone), hematological examination, blood chemistry examination, urinalysis, bone marrow examination, pathological anatomical examination, organ weight measurement, histopathological examination and immunotoxicity test were carried out. In addition, toxicokinetics (TK) measurement was carried out on Day 1 and Day 14 after administration. It was confirmed that each test compound was exposed. The administration dose of a test compound was specified as 0, 250, 500, 1000 mg/kg/day and administration volume was specified as 10 mL/kg. As an administration solvent, phosphate-buffered saline was used for the compound of Example 11 and distilled water was used for the compound of Comparative Example 2.

[1] = tested on: human aortic smooth muscle cells (T/G HA-VSMG); experiment: Inducibility of cytoplasmic vacuolation in human aortic smooth muscle cells; type: cell-based; details: Concentration: 1.0 mmol/L, Treatment time: 24 hours, sulfate monohydrate
Protocol: (§1) As a test compound, the compound of Example 3, 9, 11, 12 or compounds of Comparative Examples 2 to 6 were used. Canine aortic smooth muscle cells (Canine Aortic Smooth Muscle Cells, supply source: Toyobo Co., Ltd.) or human aortic smooth muscle cells of (T/G HA-VSMG, supply source: ATCC) were treated with a test compound (1.0 or 1.2 mmol/L in concentration) for 24 hours or 2 weeks. The cells were stained with HE, immunohistochemically for LAMP-2 or toluidine blue, and thereafter the presence or absence of cytoplasmic vacuolation was determined by using an optical microscope.

[2] = Pharmacokinetics (PK) test in cynomolgus monkeys; type: in vivo, cynomolgus monkey; details: male, plasma, cynomolgus monkey
Protocol: Cynomolgus monkeys (4 to 6 years old, male) were raised under the conditions of voluntary intake of solid food (Oriental Yeast Co., Ltd) and tap water and fasted from the evening of the day before initiation of administration and subjected to an experiment. Note that blood was sampled at 4 hours after administration (on and after 16:00), and thereafter feeding was restarted.
Dosing solution for intravenous administration was injected through the saphenous vein by use of a syringe needle (attached to a syringe barrel). The oral administration into the stomach was compulsively carried out by inserting a catheter into the nasal cavity.
The blood sampled was centrifuged at 4° C. and 1800×g for 15 minutes to obtain the plasma. The plasma thus obtained was stored at about −80° C. until use in preparation of analysis samples. The plasma obtained from a cynomolgus monkey to which a test compound was administrated, is referred to as a plasma sample; whereas the plasma obtained from a cynomolgus monkey to which a test compound was not administered, is referred to as the blank plasma.
(§2) The resulting solution was vortexed and cooled at 4° C. for 10 minutes. A sample for a calibration curve was prepared by adding a standard solution for a calibration curve to the blank plasma and subjecting the resulting mixture to the same treatment. After cooling, each of the samples was spun at 4° C. and 2000 rpm for 10 minutes by a centrifuge (Hitachi Koki Co., Ltd.). The resulting supernatant was used as a sample for LC/MS/MS analysis.
as §2, with “diluted 10 fold with 70 vol % acetonitrile containing 0.1 vol % formic acid and subjected” for “used”, “analysis. The LC/MS/MS analysis conditions were as follows:” for “analysis.”
The test-compound concentrations in the plasma at each sampling time point in the case of intravenous administration or oral administration were calculated and PK analysis was carried out for individual monkeys. PK parameters were calculated by using WinNonlin (Pharsight), in accordance with an analysis independent of a model (intravenous administration: Bolus IV Administration, oral administration: Extravascular Administration; Weight=1/y in both administrations). Furthermore, bioavailability (BA) was calculated based on the following Expression (3) by dividing AUC0-∞iv (time 0 to ∞) at the time of the intravenous administration and AUC0-∞po (time 0 to ∞) at the time of the oral administration by respective dose values to obtained as normalized values. Bioavailability (BA)=(AUC0-∞,po/dose)/(AUC0-∞,iv/dose) (3)

[3] = tested on: Canine aortic smooth muscle cells; experiment: Inducibility of cytoplasmic vacuolation in canine aortic smooth muscle cells; type: cell-based; parameters: key: Present: The term “present” in the tables means that cytoplasmic vacuolation was observed; Absent: the term “absent” means that cytoplasmic vacuolation was not observed; details: Concentration: 1.0 mmol/L, Treatment time: 24 hours
Protocol: as §1

[4] = tested on: mouse partial sciatic nerve ligation model (neuropathic pain); experiment: Mouse partial sciatic nerve ligation model (Seltzer model), von Frey test; type: in vivo; details: oral administration, von Frey test at 1, 2, 3 h
Protocol: The mouse partial sciatic nerve ligation model was prepared in accordance with the method of Seltzer et al. (Malmberg et al., Pain, vol. 76, p. 215-222, 1998).
Slc: ICR mice (5 weeks old, male; from Japan SLC, Inc.) or Cr1: CD1 (ICR) mice (5 weeks old, male; from CHARLES RIVER LABORATORIES JAPAN, INC.) were anesthetized with sodium pentobarbital (70 mg/kg, intraperitoneal administration). The sciatic nerve at the femoral region of the right hind paw of each mouse was exposed and triply ligated tightly with silk suture of 8-0 (from NATSUME SEISAKUSHO CO., LTD.) under a stereomicroscope so that only half thickness of the nerve was trapped in the ligature. A group of mice thus treated was designated as a partial sciatic nerve ligation group. A group of mice whose sciatic nerve was just exposed and not ligated was designated as a sham surgery group.
Evaluation of neuropathic pain (hereinafter referred to as von Frey test) was performed as follows. Mice were conditioned for at least one hour in an acrylic cage for measurement (from NATSUME SEISAKUSHO CO. LTD. or SHINANO SEISAKUSHO) placed on a wire net. Thereafter, using a filament (from North Coast Medical or neuroscience) which exerted a pressure of 0.16 g, the mice were subjected to mechanical tactile stimulus by applying the filament to the plantar surface of the right hind paw 3 times, each for 3 seconds, with an interval of 3 seconds.
Seven days after the sciatic nerve ligation surgery, the compound of Example 1, 2, 3, 4, 5, 7, 8, 9, 10, 11, 12 or 13 (10 mg/kg for each of the compounds of Example 1, 2, 3, 4, 5, 8, 10 and 13, 0.01 to 1 mg/kg for the compound of Example 7, 0.01 to 10 mg/kg for the compound of Example 9; 0.001 to 0.1 mg/kg for the compound of Example 11; and 0.01 to 1 mg/kg for the compound of Example 12) or pregabalin as a positive control (10 mg/kg; Bosche Scientific) was dissolved in distilled water and orally administered to mice of the partial sciatic nerve ligation group. The groups of the mice in the partial sciatic nerve ligation mouse to which the compound of Example 1, 2, 3, 4, 5, 7, 8, 9, 10, 11, 12 or 13 was administered were designated as a “partial sciatic nerve ligation+the compound of Example 1” group; a “partial sciatic nerve ligation+the compound of Example 2” group; a “partial sciatic nerve ligation+the compound of Example 3” group; a “partial sciatic nerve ligation+the compound of Example 4” group; a “partial sciatic nerve ligation+the compound of Example 5” group; a “partial sciatic nerve ligation+the compound of Example 7” group; a “partial sciatic nerve ligation+the compound of Example 8” group; a “partial sciatic nerve ligation+the compound of Example 9” group; a “partial sciatic nerve ligation+the compound of Example 10” group; a “partial sciatic nerve ligation+the compound of Example 11” group; a “partial sciatic nerve ligation+the compound of Example 12” group; and a “partial sciatic nerve ligation+the compound of Example 13” group, respectively. The partial sciatic nerve ligation mouse group to which pregabalin was administered was designated as a “partial sciatic nerve ligation+pregabalin” group. A group wherein distilled water was orally administered to the mice of the partial sciatic nerve ligation group was designated as a “partial sciatic nerve ligation+distilled water” group. A group wherein distilled water was orally administered to the mice of the sham surgery group was designated as a “sham surgery+distilled water” group.
The von Frey test was carried out before oral administration of a test compound (pre-value), one hour, two hours, and three hours after the oral administration of a test compound.
Slc: ICR mice (5 weeks old, male; Japan SLC, Inc.) were anesthetized with sodium pentobarbital (70 mg/kg, intraperitoneal administration).

[5] = tested on: mouse partial sciatic nerve ligation model (neuropathic pain); experiment: as above; type: in vivo; details: Comparative Example 7: oral, 7 days after ligation, 1-3 h after dosing; 0.01-1 mg/kg (Comp Ex 1), 10 mg/kg (Comp Ex 3-6, pregabalin); vs ligation+distilled water; t-test corrected by Dunnett

SMILES | findings in examination items (Cr1: CD (SD) rats; 250 mg/kg/day) | findings in examination items (Cr1: CD (SD) rats; 500 mg/kg/day) | no observed adverse effect level (Cr1: CD (SD) rats; oral, 2 weeks) | Inducibility of cytoplasmic vacuolation [1] | bioavailability ([2]; 1 mg/kg oral vs 1 mg/kg intravenous, read-out: BA (bioavailability)) | clearance ([2]; intravenous administration 1 mg/kg, single, read-out: CLtot (total body clearance) (converted)) | AUC(0-inf) ([2]; oral administration 1 mg/kg, single) | Cmax ([2]; oral administration 1 mg/kg, single, read-out: Cmax (maximum plasma concentration)) | half-life ([2]; oral administration 1 mg/kg, single, read-out: t1/2 (elimination half-life in the plasma) (converted)) | Inducibility of cytoplasmic vacuolation [3] | persistence of analgesic action [4] | time of strongest analgesic action after oral administration [4] | analgesic action in von Frey test (total score) [5]
CN(C)C1CCN(C(=O)CCc2nccn2C)CC1 [Comparative Example 2, 1-(4-(dimethylamino)piperidin-1-yl)-3-(1-methyl-1H-imidazol-2-yl)propan-1-one sulfate monohydrate] | abnormality was not observed | vacuolation was observed in e.g., the media of blood vessels of submandibular gland | 250 mg/kg/day | has the inducibility of cytoplasmic vacuolation; also recorded: Present | 42.6% | 8.35 mL/min/kg | 849 ng·h/mL | 146 ng/mL | 6.56 h | Present |  |  | 
CCn1ccnc1CCC(=O)N1CCC(N(C)C)CC1 [Comparative Example 3, 1-(4-(dimethylamino)piperidin-1-yl)-3-(1-ethyl-1H-imidazol-2-yl)propan-1-one hydrochloride] |  |  |  |  |  |  |  |  |  | Present | tended to decrease 2 hours and 3 hours later | one | statistically significant analgesic action
CCCn1ccnc1CCC(=O)N1CCC(N(C)C)CC1 [Comparative Example 4, 1-(4-(dimethylamino)piperidin-1-yl)-3-(1-propyl-1H-imidazol-2-yl)propan-1-one hydrochloride] |  |  |  |  |  |  |  |  |  | Present | tended to decrease 2 hours and 3 hours later | one | statistically significant analgesic action
CCCCn1ccnc1CCC(=O)N1CCC(N(C)C)CC1 [Comparative Example 5, 1-(4-(dimethylamino)piperidin-1-yl)-3-(1-butyl-1H-imidazol-2-yl)propan-1-one hydrochloride] |  |  |  |  |  |  |  |  |  | Present | tended to decrease 2 hours and 3 hours later | one | statistically significant analgesic action
